In patent US9333152B2, “Peptides which inhibit activated receptors and their use in cosmetic or pharmaceutical compositions” (LIPOTEC, S.A., priority 2011, dated 2016):
Where “and” joins values, the source holds several entries; their conditions need not be identical. Equal values may be shown once.

Key:
PAR-2 = target: T1, PAR-2 (Homo sapiens, UniProt P55085); assay: Inhibition of the release of IL-6 induced by PAR-2 activity in human keratinocytes (ELISA); type: cell-based; details: 48 h, relative to agonist
T1 construct: endogenous in cells; host or cells: human keratinocytes
T1 sequence (P55085 26-397): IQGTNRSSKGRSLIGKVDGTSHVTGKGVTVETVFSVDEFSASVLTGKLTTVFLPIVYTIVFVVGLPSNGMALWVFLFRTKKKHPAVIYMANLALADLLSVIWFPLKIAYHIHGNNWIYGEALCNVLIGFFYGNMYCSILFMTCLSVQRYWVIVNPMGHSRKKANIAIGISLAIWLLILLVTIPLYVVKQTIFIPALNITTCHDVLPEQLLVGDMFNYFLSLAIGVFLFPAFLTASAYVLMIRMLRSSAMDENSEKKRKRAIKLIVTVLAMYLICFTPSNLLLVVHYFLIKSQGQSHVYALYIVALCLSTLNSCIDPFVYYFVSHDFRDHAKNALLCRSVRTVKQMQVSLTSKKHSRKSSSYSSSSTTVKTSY
Method: Human keratinocytes were cultivated in supplemented Epilife® medium until confluence was achieved. The cells were then separated by treatment with trypsin and seeded at a density of 18,000 cells per well in 96-well plates pre-treated with collagen matrix. After 48 hours of incubation in supplemented Epilife® medium at 37° C. in a humidified atmosphere of 5% CO2 a fresh medium was added with different concentrations of the product of the invention together with PAR2 Agonist I at 50 μM. Cells treated with supplemented Epilife® medium were added as a negative control (Control). The cells were incubated for another 48 hours under the same conditions, after which the supernatants were collected and the amount of IL-6 released was determined using the Human IL-6 ELISA Ready-SET-GOI® commercial kit (eBioscience, Inc.) following the supplier's instructions. The absorbance of each well was determined by reading the spectrophotometer Multiskan Ascent Reader at 450 nm correcting for each determination with its corresponding reading at 570 nm. The relative levels of IL-6 were calculated standardized with regard to the absorbance corresponding to the treatment of the cells with the PAR-2 Agonist I (maximum release of IL-6 in this cell model).

[1] = system: sensitization of TRPV1 mediated by PAR-2 activity; assay: Inhibition of sensitization of TRPV1 mediated by PAR-2 activity in sensory neurons in culture; CGRP levels (EIA); type: cell-based; details: rat DRG neurons, 15 min, PAR-2 agonist I 30 μM then capsaicin 1 μM
Method: Thus, the effectiveness and potential of the peptides in the inhibition of α-CGRP release due to TRPV-1 sensitization mediated by PAR-2 activity in culture of rat DRG neurons was evaluated.
DRG neurons in culture were incubated with the different treatments at the indicated concentrations in buffer medium HBSS (Hank's Balanced salt solution) for 15 min at 37° C., after which the neurons were sensitized by treatment with the PAR-2 agonist I at 30 μM for 15 min at 37° C. Lastly α-CGRP release was induced by treatment with capsaicin 1 μM for 5 min at 37° C. The supernatants were collected and the amount of α-CGRP released was determined by enzyme immunoassay using the Rat CGRP EIA kit (SPI-Bio, Societe de Pharmacologie et d'Immunologie-BIO, France) following the supplier's instructions. The intensity of the color, determined by reading the absorbency at 405 nm, is proportional to the amount of CGRP released. The relative values of CGRP released were determined by double standardization with regard to the basal release of CGRP of the negative control (cells treated with HBSS) and the maximum releases of CGRP induced by the treatment with the cells with the PAR-2 agonist I and capsaicin.

[2] = system: human epidermal keratinocytes; assay: Proliferation of human epidermal keratinocytes in culture (calcein-AM); type: cell-based; details: 24 h, (T-C)/C
Method: Cell proliferation was evaluated by a fluorescence-based cell viability method, in which the live cells are distinguished from the dead cells by the enzymatic conversion of calcein-AM to its fluorescent form.
Human keratinocytes were cultivated in DMEM supplemented with fetal bovine serum (FBS) until confluence was achieved. The cells were then separated using trypsin and were seeded at a density of 100,000 cells per well in 96-well plates. After 24 hours of incubation in DMEM at 37° C. in a humidified atmosphere at 5% CO2 a fresh medium was added with different concentrations of the product of the invention. Cells treated with DMEM as a negative control were used. The cells were incubated for another 24 hours under the same conditions and the medium was substituted by 100 μl of calcein-AM (Molecular Probes) at 0.4 μM diluted in phosphate buffered saline (PBS). After 30 minutes of incubation at 37° C. the fluorescence was measured at excitation 485 nm and emission 530 nm in a plate reader (Genios, Tecan). The total growth percentage was calculated as T/C×100 wherein T is the fluorescence of the wells treated with the peptides of the invention and C the fluorescence of the control wells treated with DMEM.

[3] = system: Reconstructed human epidermis (RHE); assay: Anti-sensitizing potential: IL-8 expression in reconstructed human epidermis (RHE), ELISA; type: cell-based; details: versus placebo composition; allergens cinnamal and farnesol
Excerpt: Cosmetic creams containing parfums normally show allergic reactions due to some allergenic components like cinnamal or farnesol. The purpose of this experiment was to evaluate the anti-sensitizing potential of a cosmetic cream of Example 23 containing cinnamal, farnesol and the peptide Ac-L-Phe-L-Phe-L-Trp-L-Phe-L-His-L-Val-NH2, compared with a placebo cream (composition of Example 23 without the ingredients of phase C). In order to determine the anti-sensitizing potential the level of interleukin-8, IL-8 was measured for both creams in RHE tissues after 24 h of cream application.
Commercial RHE tissues (SkinEthic, Lyon, RHE/S/17) (0.5 cm^2) were treated in triplicate with 15 μg of the composition of Example 23 and the placebo composition over the surface of the tissue. After 24 hours of incubation in growth medium at 37° C. in a humidified atmosphere at 5% CO2, the IL-8 expression in the treated RHE tissues was determined using the ELISA Interleukin detection kit (Invitrogen) following the supplier's instructions. The absorbance was determined by reading the spectrophotometer Synergy MX, Biotek, at 450 nm.

human dermal fibroblasts = assay: Photoprotective effectiveness in human dermal fibroblasts (solar simulation lamp, Neutral Red); type: cell-based; details: 0.01 μg/mL
Method: The human dermal fibroblasts were maintained in culture for 24 hours in […] or phosphate buffered saline (irradiated control, IC) for 1 hour at 37° C. and humidified air with 5% CO2. The cells were then irradiated with a solar simulation lamp with an energy of 37 J/cm^2 at room temperature for 150 min. A control plate was kept in the dark for the same time at room temperature (non-irradiated control, NIC). After the irradiation period the cell medium was replaced by a fresh one and the cells were incubated for another 24 hours. Cell viability was determined by Neutral Red dye, measuring the optical density at 540 nm in a spectrophotometer, standardizing the values of each simple with regard to the cell viability of the non-irradiated control sample (CVNIC).

[4] = system: human epidermal keratinocytes; assay: Induction of healing in human epidermal keratinocytes in culture (cell-free area closure); type: cell-based; details: 48 h, (A0-A48)/A0
Method: Human keratinocytes were cultivated in DMEM supplemented with fetal bovine serum (FBS) until confluence was achieved. The cells were then separated using trypsin and were seeded at a density of 50,000 cells per well in 48-well plates. After 48 hours of incubation in DMEM at 37° C. in a humidified atmosphere at 5% CO2 a cut in the cultivation with a pipette point to create an area without cells simulating an injury and photographs were taken of said area with a Zeiss Axiovert 40 CFL microscope equipped with a AxioCam MRc5 camera, calculating the area of the zone without cells using the (A0) equipment software. A fresh medium was then added with different concentrations of the product of the invention. Cells treated with DMEM as a negative control were used, and cells treated with DMEM and FBS as the positive healing control. The cells were incubated for another 48 hours under the same conditions to enable cell migration in the injury area, after which photographs were taken of the injury area once again and the corresponding areas of the zones without cells were calculated (A48).
The healing percentage was calculated as the ratio of the reduction to the area without cells after 48 hours and the area without cells before incubation with the peptide [(A0-A48)/A0].

[5] = In vivo study of skin hydration (Corneometer CM 825, legs); set-up: species or system human; details: versus placebo composition
Method: A comparative in vivo study of the hydrating capacity of the skin of the cosmetic composition in example 22 and its placebo composition, which contained the same ingredients and in the same percentages as the composition of example 22, except the peptide of the invention, Ac-L-Phe-L-Phe-L-Trp-L-Phe-L-His-L-Val-NH2, which was substituted by water.
The measurements of this study were carried out after the test persons were acclimatized for 45 minutes in a bioclimatic room (22° C.; 60% relative humidity) and with the purpose of maintaining the temperature and humidity constant during the measuring. The measurements of skin hydration were carried out on the legs using a Corneometer® CM 825 (Courage & Khazaka, Germany). […]
All the volunteers applied the placebo composition on their right leg and the cosmetic composition from Example 22 on their left legs twice a day for 4 weeks, always applying the placebo composition to the right leg and the composition from example 22 to the left leg. […] Skin measurement values were measured at three different places within the respective testing areas. The recorded values were averaged. […]

[6] = peptide 0.1 mg/mL with PAR2 Agonist I 50 μM
[7] = peptide 0.5 mg/mL with PAR2 Agonist I 50 μM

Substance | % IL-6 (PAR-2; [6]) [%] | % IL-6 (PAR-2; [7]) [%] | % CGRP ([1]; peptide 25 μg/mL) [%] | % CGRP ([1]; peptide 0.5 mg/mL) [%] | % Stimulation of proliferation ([2]; 10 μg/mL) [%] | % Stimulation of proliferation ([2]; 25 μg/mL) | IL-8 expression / release of cytokines (in words) [3] | % PHOTOPROTECTIVE EFFECTIVENESS (human dermal fibroblasts; (CVi-CVIC)/CVIC versus irradiated control) [%] | CELL VIABILITY (%) (human dermal fibroblasts; irradiated 37 J/cm^2, 150 min, relative to non-irradiated control) | % Healing ([4]; 25 μg/mL) [%] | % Healing ([4]; 0.5 mg/mL) | skin hydration (in words) [5]
Ac-FFWDIV-NH2 [Ac-L-Phe-L-Phe-L-Trp-L-Asp-L-Ile-L-Val-NH2] | 36.2 | 11.5 | 78.7 | 20.3 | – | – | – | – | – | – | – | –
Ac-FMWFHV-NH2 [Ac-L-Phe-L-Met-L-Trp-L-Phe-L-His-L-Val-NH2] | 84.6 | 42.3 | 70.1 | 20.2 | – | – | – | – | – | – | – | –
Ac-FFWFHV-NH2 [Ac-L-Phe-L-Phe-L-Trp-L-Phe-L-His-L-Val-NH2] | 61.8 | 30.4 | 58.9 | 17.7 | 21.3 | 23% and 23.2% | highly counteract the release of cytokines induced by cosmetic allergens | 105.9 | 37.1 | 40.0 | 45% and 44.8% | improves the skin's hydration in vivo
